Test results as given in patent US9284297B2, “Halofuginone analogs for inhibition of tRNA synthetases and uses thereof” (President and Fellows of Harvard College, priority 2008, dated 2016).
Blank lines part the entries; values can stand above or below the molecule they belong to.

Assays:
[1] = system: Human primary dermal fibroblasts; experiment: Inhibition of cell spreading in a fibroblast model; format: cell-based; set-up: key: “+++” vs. “++” vs. “+” in general denotes ˜4-fold differences in potency; “+++” vs. “++” vs. “+” in general denotes ˜4-fold differences in potency; “+++” vs. “++” vs. “+” in general denotes ˜4-fold differences in potency; “−” denotes no activity at any dose tested, up to 1000× the effective dose of halofuginone; conditions: spreading of cells assessed by light microscopy 28 hours after treatment
Experimental: The ability of halofuginone and analogs thereof to inhibit the spreading of freshly plated primary dermal fibroblasts was examined. Human primary dermal fibroblasts were replated and halofuginone added immediately after replating; spreading of cells was assessed by light microscopy 28 hours after treatment with compound. “+++” vs. “++” vs. “+” in general denotes ˜4-fold differences in potency. “−” denotes no activity at any dose tested, up to 1000× the effective dose of halofuginone.

[2] = system: translation of luciferase RNA in rabbit reticulocyte lysate; experiment: Translation of a luciferase RNA reporter in rabbit reticulocyte lysate; format: biochemical; set-up: key to Translational inhibition: “+++” vs. “++” vs. “+” in general denotes ˜4-fold differences in potency; “+++” vs. “++” vs. “+” in general denotes ˜4-fold differences in potency; “+++” vs. “++” vs. “+” in general denotes ˜4-fold differences in potency; “−” denotes no activity at any dose tested, up to 1000× the effective dose of halofuginone; conditions: luciferase RNA reporter
Experimental: To distinguish these possibilities, the effect of halofuginone on protein translation was examined in an in vitro system (rabbit reticulocyte lysate) in which amino acids are already present at levels adequate to support protein synthesis. […] Distinct tRNA synthetases catalyze the charging of individual tRNA species with their cognate amino acid. To determine which tRNA synthetase is inhibited by halofuginone, several amino acid mixtures were added to the in vitro translation system to determine which, if any, could reverse the inhibition of translation by halofuginone (FIG. 3). […] To examine whether proline could specifically rescue the effect of halofuginone in intact cells, the ability of each amino acid to reverse the effect of halofuginone on eIF2alpha phosphorylation in T-cells or to prevent halofuginone inhibition of Th17 differentiation was tested (FIG. 4). […] Inhibition of EPRS with compounds of the current invention can inhibit Th17 differentiation.
Translation in vitro was performed using rabbit reticulocyte lysates and luciferase mRNA as template. Translation was measured as arbitrary units of luciferase activity using a luminometer based luminescence assay. Log scale presentation of background-subtracted data is shown.
Inhibition of translation of luciferase RNA by halofuginone and analogs thereof was measured as described in FIG. 3 above. Results are shown of translation of a luciferase RNA reporter in a rabbit reticulocyte lysate. “+++” vs. “++” vs. “+” in general denotes ˜4-fold differences in potency. “−” denotes no activity at any dose tested, up to 1000× the effective dose of halofuginone.

[3] = system: Differentiation of primary naïve T-cells into Th17 cells; experiment: Inhibition of Th17 differentiation of primary naïve T-cells by halofuginone analogs; format: cell-based, murine; set-up: key: “+++” vs. “++” vs. “+” in general denotes ˜4-fold differences in potency; “+++” vs. “++” vs. “+” in general denotes ˜4-fold differences in potency; “+++” vs. “++” vs. “+” in general denotes ˜4-fold differences in potency; “−” denotes no activity at any dose tested, up to 1000× the effective dose of halofuginone; conditions: T-cell receptor stimulation+IL-6+TGFb
Experimental: Naïve T-cells were stimulated to differentiate in the presence or absence of 10 nM halofuginone, with 1 mM of the indicated amino acids added to the medium, and stained for Th17 differentiation on day 4. Naïve murine T cells were activated in the presence or absence of TGFβ plus IL-6 as indicated, expanded in for 4 days and restimulated with PMA and ionomycin for intracellular cytokine staining. […] Bars indicate percentage of cells differentiation as Th17 as indicated by IL17 expression.
The effect of different halofuginone and analogs thereof on differentiation of naïve T-cells was assayed as described in legend for FIG. 4 above. Differentiation of primary naïve T-cells into Th17 cells following T-cell receptor stimulation+IL-6+TGFb. “+++” vs. “++” vs. “+” in general denotes ˜4-fold differences in potency. “−” denotes no activity at any dose tested, up to 1000× the effective dose of halofuginone.

[4] = system: eIF2α phosphorylation and ATF4 protein levels in CD4+ CD25− T cells; experiment: Amino acid response (AAR) pathway activation in T cells, western blot; format: cell-based, mice; conditions: 4 hours
Experimental: CD4+ CD25− T cells purified from wild type of GCN2−/− mice were activated through TCR for 4 hours in the presence of halofuginone (10 nM) or 9 (MAZ1310, 10 nM). Whole cell lysates were analyzed by SDS PAGE/Western blot and antibodies indicated.
Naïve T-cells were treated to stimulate the T-cell receptor (TCR) in the presence or absence of 10 nM halofuginone in the presence of 1 mM added amino acid, and then assayed for eIF2alpha activity phosphorylation by SDS PAGE/Western blot.
HF induced detectable eIF2α phosphorylation at 2.5 nM, and this effect plateaued at 5-10 nM HF (FIG. 7D). […] AAR activation was a general consequence of HF treatment; HF induced eIF2α phosphorylation, not only in T cells activated in Th17-priming conditions, but also in resting naïve T cells and T cells activated in ThN, Th1, Th2, and iTreg polarizing conditions (FIG. 7F). […] Thus, the rapid activation of the AAR pathway by HF could underlie both its selective inhibition of Th17 differentiation and its effects on fibroblasts (Pines and Nagler, Gen. Pharmacol. 30:445, 1998).
To delineate the stress response pathway activated by HF, the effects of amino acid starvation with those of tunicamycin (an inducer of ER stress) or HF treatment during T cell activation were compared.
Whole cell lysates were generated from T cells activated for the indicated times. For STAT3 and Smad2/3 western blots cells were harvested, washed in PBS and lysed in 50 mM Tris, pH 7.4, 0.1% SDS, 1% Triton-X100, 140 mM NaCl, 1 mM EDTA, 1 mM EGTA supplemented with protease inhibitors tablets (Roche, Germany), 1 mM NaF and 1 mM Na3VO4. For eIF2α and ATF4 western blots, cells were harvested as above and lysed in 50 mM Tris, pH 7.4, 2% SDS, 20% glycerol and 2 mM EDTA supplemented with protease and phosphatase inhibitors as above. All lysates were cleared via centrifugation and 15-30 μg of protein was resolved by SDS-PAGE. Protein was transferred to nitrocellulose membranes, blocked and blotted using specific antibodies. Antibodies used for western blot analysis were anti-phospho-Smad2, anti-STAT3 (pY705), anti-STAT3, anti-eIF2α^pS51, anti-eIF2α (all from Cell Signaling Technology, Danvers, Mass.). Anti-ATF4/CREB2 and anti-β-actin were purchased from Santa Cruz Biotechnology (Santa Cruz, Calif.). HRP-conjugated secondary antibodies were all purchased from Sigma, with the exception of HRP-conjugated anti-armenian hamster antibody (Jackson Immunoresearch, West Grove, Pa.).

[5] = system: Th17 differentiation of CD4+ CD25− T cells; experiment: Th17 differentiation of CD4+ CD25− T cells (IL-17+ IFNγ− cells, intracellular cytokine staining); conditions: activated in the presence of TGFβ plus IL-6, intracellular cytokine staining day 4
Experimental: Purified CD4^+ CD25^− T cells were activated in vitro as previously described (Djuretic et al., Nat. Immunol. 8:145, 2007) using 0.3 μg/ml hamster anti-mouse CD3 (clone 145-2C11) (ATCC, Manassas, Va.) and 0.5 μg/ml hamster anti-mouse CD28 (BD Pharmingen, San Jose, Calif.). Activated cell cultures were differentiated using the following combinations of cytokines and antibodies: iTreg—recombinant human TGFβ1 (3 ng/ml—R&D systems, Minneapolis, Minn.), Th17-TGFβ1 (3 ng/ml) plus recombinant mouse IL-6 (30 ng/ml—R&D systems). […] Human IL-2 supernatant (National Cancer Institute) was used in culture at 0.01 U/ml and was added at 48 hours-post activation when T cells were split into tissue culture wells lacking CD3 and CD28 antibodies, with the exception of Th17 cultures that were maintained in the absence of exogenous IL-2. […] All reagents (see below) were added at the time of T cell activation and again at 48 hours post activation unless indicated otherwise.
For detection of intracellular cytokines in murine cells, cultured T or B cells were stimulated with 10 nM PMA (Sigma) and 1 mM ionomycin (Sigma) for 4-5 hours in the presence of 10 mM brefeldin A (Sigma). Stimulated cells were harvested, washed with PBS and fixed with PBS plus 4% paraformaldehyde at room temperature for 20 minutes. Cells were then washed with PBS, permeabilized with PBS supplemented with 1% BSA and 0.5% saponin (Sigma) at room temperature for 10 minutes before cytokine-specific antibodies were added and incubated with cells for an additional 20 minutes at room temperature. […] All stained cells were stored at 4° C. in PBS plus 1% paraformaldehyde prior to FACS analyses.
All cell surface staining was performed in FACS buffer (PBS/2% FBS/0.1% NaN3) and antibodies were incubated with cells on ice for 20-30 minutes. Cells were washed with FACS buffer and fixed with FACS buffer plus 1% paraformaldehyde prior to data acquisition.

[6] = system: CD4+ CD25− T cells (Th1, Th2, iTreg differentiation, proliferation, CD25), CD8+ T cells, B cells; experiment: T and B cell activation, proliferation and Th1, Th2, iTreg differentiation; format: cell-based, murine; conditions: polarizing cytokine conditions; IFNγ, IL-4, Foxp3 expression
Experimental: Cytokines secreted into media supernatant were measured using the mouse Th1/Th2 cytometric bead array (CBA—BD Pharmingen) in accordance with manufacturers instructions.

Molecule: C[Si](C)(C)C#Cc1cc2ncn(CC(=O)CC3NCCCC3O)c(=O)c2cc1Cl (stereo not shown) [Compound 5, 6-chloro-3-(3-((2S/R,3R/S)-3-hydroxypiperidin-2-yl)-2-oxopropyl)-7-((trimethylsilyl)ethynyl)quinazolin-4(3H)-one]
Fibroblast inhibition [1]: ++

Translational inhibition [2]: +
Molecule: NCCOCCOCCNC(=O)CCCC#Cc1cc2ncn(CC(=O)CC3NCCCC3O)c(=O)c2cc1Cl (stereo not shown) [Compound 8, N-(2-(2-(2-aminoethoxy)ethoxy)ethyl)-6-(6-chloro-3-(3-((2S/R,3R/S)-3-hydroxypiperidin-2-yl)-2-oxopropyl)-4-oxo-3,4-dihydroquinazolin-7-yl)hex-5-ynamide]
Fibroblast inhibition [1]: +

Translational inhibition [2]: ++
Molecule: COC(=O)CCCCC(=O)N/N=C(/CC1NCCCC1O)Cn1cnc2cc(Br)c(Cl)cc2c1=O (stereo not shown) [Compound 12, methyl 6-((Z)-2-(1-(7-bromo-6-chloro-4-oxoquinazolin-3(4H)-yl)-3-((2S/R,3R/S)-3-hydroxypiperidin-2-yl)propan-2-ylidene)hydrazinyl)-6-oxohexanoate]
Fibroblast inhibition [1]: ++

Translational inhibition [2]: −
Molecule: CC(C)(C)OC(=O)N1CCCC(O)C1CC(=O)Cn1cnc2cc(Br)c(Cl)cc2c1=O (stereo not shown) [Compound 9, (2S/R,3R/S)-tert-butyl 2-(3-(7-bromo-6-chloro-4-oxoquinazolin-3(4H)-yl)-2-oxopropyl)-3-hydroxypiperidine-1-carboxylate]
Inhibition of Th17 differentiation [3]: − | Fibroblast inhibition [1]: − | phosphorylation of Ser51 of eIF2alpha, GCN2 dependence ([4]; 10 nM, T cells from wild type or GCN2−/− mice): inactive

Translational inhibition [2]: ++
Molecule: CC(=O)N/N=C(/CC1NCCCC1O)Cn1cnc2cc(Br)c(Cl)cc2c1=O (stereo not shown) [Compound 14, (Z)—N′-(1-(7-bromo-6-chloro-4-oxoquinazolin-3(4H)-yl)-3-((2S/R,3R/S)-3-hydroxypiperidin-2-yl)propan-2-ylidene)acetohydrazide]

Molecule: O=C(CC1NCCCC1O)Cn1cnc2ccccc2c1=O (stereo not shown) [Compound 3, febrifugine]
Inhibition of Th17 differentiation [3]: ++ | Translational inhibition [2]: ++ | Fibroblast inhibition [1]: ++

Translational inhibition [2]: ++
Molecule: N-(6-((Z)-2-(1-(7-bromo-6-chloro-4-oxoquinazolin-3(4H)-yl)-3-((2S/R,3R/S)-3-hydroxypiperidin-2-yl)propan-2-ylidene)hydrazinyl)-6-oxohexyl)-6-(5-(2-oxohexahydro-1H-thieno[3,4-d]imidazol-4-yl)pentanamido)hexanamide [Compound 13]
Inhibition of Th17 differentiation [3]: ++ | Fibroblast inhibition [1]: ++

Molecule: O=C(CC1NCCCC1O)Cn1cnc2cc(Br)c(Cl)cc2c1=O (single isomer, unassigned) [D-enantiomer of HF]
inhibition of Th17 differentiation / IL-17 expression (in words) [5]: inhibited IL-17 expression more potently than a racemic mixture

Translational inhibition [2]: +++
Molecule: C#Cc1cc2ncn(CC(=O)CC3NCCCC3O)c(=O)c2cc1Cl (stereo not shown) [Compound 7, 6-chloro-7-ethynyl-3-(3-((2S/R,3R/S)-3-hydroxypiperidin-2-yl)-2-oxopropyl)quinazolin-4(3H)-one]
Inhibition of Th17 differentiation [3]: +++ | Fibroblast inhibition [1]: +++

Molecule: C[C@@H]1C[C@H](C)C[C@H](C)[C@@H](O)CC(=O)O[C@H]([C@@H]2CCC[C@H]2C(=O)O)C/C=C/C=C(/C#N)[C@H](O)[C@@H](C)C1 [Borrelidin]
effect on Th1, Th2, iTreg differentiation [6]: without affecting Th1, Th2, or Treg differentiation or cell number | inhibition of Th17 differentiation / IL-17 expression (in words) [5]: inhibits Th17 differentiation

Molecule: C#Cc1cc2ncn(CC(=O)CC3NCCCC3O)c(=O)c2cc1Cl (stereo not shown) [MAZ1320]
effect on Th1, Th2, iTreg differentiation [6]: without inhibiting Th1 differentiation | inhibition of Th17 differentiation / IL-17 expression (in words) [5]: selectively inhibit the differentiation of Th17 cells

Molecule: O=C(CC1NCCCC1O)Cn1cnc2cc(Br)c(Cl)cc2c1=O (single isomer, unassigned) [L-enantiomer]
inhibition of Th17 differentiation / IL-17 expression (in words) [5]: completely inactive

Molecule: N/N=C(/CC1NCCCC1O)Cn1cnc2cc(Br)c(Cl)cc2c1=O (stereo not shown) [MAZ1686]
effect on Th1, Th2, iTreg differentiation [6]: without inhibiting Th1 differentiation | inhibition of Th17 differentiation / IL-17 expression (in words) [5]: selectively inhibit the differentiation of Th17 cells

Molecule: N[C@H](CO)Cc1c[nH]c2ccccc12 [L-tryptophanol]
inhibition of Th17 differentiation / IL-17 expression (in words) [5]: impaired IL-17 production | inhibition of Th17 differentiation / IL-17 expression (in words) ([5]; listed as tryptophanol): inhibited Th17 differentiation

Molecule: tunicamycin
effect on Th1, Th2, iTreg differentiation [6]: preferentially impaired Th1 and Th2 differentiation | stress response pathway: eIF2α phosphorylation, ATF4 expression, Xbp-1 splicing ([4]; 10 nM HF or 1 μg/ml tunicamycin): induced eIF2α phosphorylation and ATF4 expression together with Xbp-1 splicing | inhibition of Th17 differentiation / IL-17 expression (in words) [5]: had little influence on IL-17 expression in T cells

Molecule: CCOP(=O)(OCC)OC1CCCNC1CC(=O)Cn1cnc2cc(Br)c(Cl)cc2c1=O (stereo not shown) [Compound 16, (2S/R,3R/S)-2-(3-(7-bromo-6-chloro-4-oxoquinazolin-3(4H)-yl)-2-oxopropyl)piperidin-3-yl diethyl phosphate]
Translational inhibition [2]: − | Fibroblast inhibition [1]: −
